Key:
[1] = for surface tension liquid-gas: Pendant drop shape; for mass density: 101 kPa, Liquid
[2] = xn = mol fraction of the nth substance listed; conditions: for surface tension liquid-gas: Pendant drop shape; for mass density: 101 kPa, Liquid

Cc1ccccc1C [1,2-dimethylbenzene]
[1]
Conditions | mass density [kg/m3] | surface tension liquid-gas [mN/m]
298.15 K | 875.05 | 29.89
303.15 K | 870.83 | 29.24
308.15 K | 866.62 | 28.57

Cc1ccccc1C [1,2-dimethylbenzene] + CCCOC(C)=O
[2], x2 = 0
Conditions | mass density [kg/m3] | surface tension liquid-gas [mN/m]
298.15 K | 875.05 | 29.89
303.15 K | 870.83 | 29.24
308.15 K | 866.62 | 28.57

Cc1cccc(C)c1 [1,3-dimethylbenzene]
[1]
Conditions | mass density [kg/m3] | surface tension liquid-gas [mN/m]
298.15 K | 859.8 | 28.47
303.15 K | 855.51 | 27.93
308.15 K | 851.19 | 27.37

Cc1cccc(C)c1 [1,3-dimethylbenzene] + CCCOC(C)=O
[2]
Conditions | mass density [kg/m3] | surface tension liquid-gas [mN/m]
298.15 K, x2 = 0 | 859.8 | 28.47
298.15 K, x2 = 0.0997 | 861.98 | 27.86
298.15 K, x2 = 0.1999 | 864.17 | 27.26
298.15 K, x2 = 0.2986 | 866.33 | 26.7
298.15 K, x2 = 0.4002 | 868.57 | 26.16
298.15 K, x2 = 0.4986 | 870.76 | 25.71
298.15 K, x2 = 0.6004 | 873.06 | 25.3
298.15 K, x2 = 0.6984 | 875.31 | 24.94
298.15 K, x2 = 0.8004 | 877.7 | 24.59
298.15 K, x2 = 0.9007 | 880.11 | 24.25
303.15 K, x2 = 0 | 855.51 | 27.93
303.15 K, x2 = 0.0999 | 857.57 | 27.35
303.15 K, x2 = 0.1989 | 859.62 | 26.79
303.15 K, x2 = 0.299 | 861.69 | 26.25
303.15 K, x2 = 0.4003 | 863.8 | 25.73
303.15 K, x2 = 0.5 | 865.9 | 25.27
303.15 K, x2 = 0.5994 | 868.02 | 24.88
303.15 K, x2 = 0.6998 | 870.19 | 24.51
303.15 K, x2 = 0.8006 | 872.42 | 24.15
303.15 K, x2 = 0.8992 | 874.66 | 23.81
308.15 K, x2 = 0 | 851.19 | 27.37
308.15 K, x2 = 0.0998 | 853.12 | 26.8
308.15 K, x2 = 0.2 | 855.07 | 26.25
308.15 K, x2 = 0.2998 | 857.01 | 25.71
308.15 K, x2 = 0.3993 | 858.96 | 25.19
308.15 K, x2 = 0.5006 | 860.96 | 24.7
308.15 K, x2 = 0.6004 | 862.95 | 24.27
308.15 K, x2 = 0.6999 | 864.97 | 23.89
308.15 K, x2 = 0.7988 | 867.02 | 23.52
308.15 K, x2 = 0.9013 | 869.2 | 23.15

Cc1ccc(C)cc1 [1,4-dimethylbenzene]
[1]
Conditions | mass density [kg/m3] | surface tension liquid-gas [mN/m]
298.15 K | 856.92 | 28.08
303.15 K | 852.58 | 27.47
308.15 K | 848.26 | 27.13

Cc1ccc(C)cc1 [1,4-dimethylbenzene] + CCCOC(C)=O
[2], x2 = 0
Conditions | mass density [kg/m3] | surface tension liquid-gas [mN/m]
298.15 K | 856.92 | 28.08
303.15 K | 852.58 | 27.47
308.15 K | 848.26 | 27.13

CCc1ccccc1 [ethylbenzene]
[1]
Conditions | mass density [kg/m3] | surface tension liquid-gas [mN/m]
298.15 K | 862.25 | 28.79
303.15 K | 857.88 | 28.29
308.15 K | 853.43 | 27.85

CCc1ccccc1 [ethylbenzene] + CCCOC(C)=O
[2], x2 = 0
Conditions | mass density [kg/m3] | surface tension liquid-gas [mN/m]
298.15 K | 862.25 | 28.79
303.15 K | 857.88 | 28.29
308.15 K | 853.43 | 27.85

CCCOC(C)=O [propyl ethanoate]
[1]
Conditions | mass density [kg/m3] | surface tension liquid-gas [mN/m]
298.15 K | 882.54 | 23.91
303.15 K | 876.99 | 23.46
308.15 K | 871.35 | 22.79

CCCOC(C)=O [propyl ethanoate] + CCc1ccccc1
[2]
Conditions | mass density [kg/m3] | surface tension liquid-gas [mN/m]
298.15 K, x1 = 0.1005 | 864.23 | 28.15
298.15 K, x1 = 0.1994 | 866.18 | 27.51
298.15 K, x1 = 0.3002 | 868.16 | 26.89
298.15 K, x1 = 0.4005 | 870.14 | 26.35
298.15 K, x1 = 0.5 | 872.12 | 25.91
298.15 K, x1 = 0.6002 | 874.14 | 25.5
298.15 K, x1 = 0.6997 | 876.17 | 25.1
298.15 K, x1 = 0.7998 | 878.24 | 24.7
298.15 K, x1 = 0.9007 | 880.38 | 24.3
298.15 K, x1 = 1 | 882.54 | 23.91
303.15 K, x1 = 0.1001 | 859.75 | 27.7
303.15 K, x1 = 0.1995 | 861.59 | 27.1
303.15 K, x1 = 0.2995 | 863.45 | 26.49
303.15 K, x1 = 0.4 | 865.32 | 25.95
303.15 K, x1 = 0.5004 | 867.2 | 25.49
303.15 K, x1 = 0.5995 | 869.08 | 25.07
303.15 K, x1 = 0.6999 | 871 | 24.65
303.15 K, x1 = 0.8005 | 872.96 | 24.24
303.15 K, x1 = 0.9007 | 874.96 | 23.85
303.15 K, x1 = 1 | 876.99 | 23.46
308.15 K, x1 = 0.1 | 855.19 | 27.24
308.15 K, x1 = 0.2 | 856.93 | 26.62
308.15 K, x1 = 0.2999 | 858.67 | 26.01
308.15 K, x1 = 0.3997 | 860.41 | 25.46
308.15 K, x1 = 0.5003 | 862.18 | 24.97
308.15 K, x1 = 0.5999 | 863.95 | 24.52
308.15 K, x1 = 0.7001 | 865.74 | 24.08
308.15 K, x1 = 0.8007 | 867.58 | 23.65
308.15 K, x1 = 0.9003 | 869.44 | 23.22
308.15 K, x1 = 1 | 871.35 | 22.79

CCCOC(C)=O [propyl ethanoate] + Cc1ccc(C)cc1
[2]
Conditions | mass density [kg/m3] | surface tension liquid-gas [mN/m]
298.15 K, x1 = 0.1 | 859.6 | 27.56
298.15 K, x1 = 0.1995 | 862.22 | 27.04
298.15 K, x1 = 0.2981 | 864.8 | 26.54
298.15 K, x1 = 0.3986 | 867.38 | 26.05
298.15 K, x1 = 0.4993 | 869.95 | 25.61
298.15 K, x1 = 0.6002 | 872.51 | 25.23
298.15 K, x1 = 0.6991 | 875 | 24.89
298.15 K, x1 = 0.7993 | 877.52 | 24.56
298.15 K, x1 = 0.8999 | 880.05 | 24.23
298.15 K, x1 = 1 | 882.54 | 23.91
303.15 K, x1 = 0.0994 | 855.13 | 26.98
303.15 K, x1 = 0.1992 | 857.64 | 26.48
303.15 K, x1 = 0.2992 | 860.13 | 25.99
303.15 K, x1 = 0.3991 | 862.58 | 25.52
303.15 K, x1 = 0.5009 | 865.05 | 25.1
303.15 K, x1 = 0.5998 | 867.44 | 24.76
303.15 K, x1 = 0.6999 | 869.84 | 24.43
303.15 K, x1 = 0.8009 | 872.26 | 24.1
303.15 K, x1 = 0.8997 | 874.63 | 23.78
303.15 K, x1 = 1 | 876.99 | 23.46
308.15 K, x1 = 0.1001 | 850.7 | 26.61
308.15 K, x1 = 0.1999 | 853.09 | 26.09
308.15 K, x1 = 0.2992 | 855.43 | 25.57
308.15 K, x1 = 0.4001 | 857.77 | 25.06
308.15 K, x1 = 0.4996 | 860.06 | 24.62
308.15 K, x1 = 0.6 | 862.35 | 24.23
308.15 K, x1 = 0.6996 | 864.61 | 23.87
308.15 K, x1 = 0.8003 | 866.88 | 23.51
308.15 K, x1 = 0.9002 | 869.14 | 23.15
308.15 K, x1 = 1 | 871.35 | 22.79

CCCOC(C)=O [propyl ethanoate] + Cc1cccc(C)c1
[2], x1 = 1
Conditions | mass density [kg/m3] | surface tension liquid-gas [mN/m]
298.15 K | 882.54 | 23.91
303.15 K | 876.99 | 23.46
308.15 K | 871.35 | 22.79

CCCOC(C)=O [propyl ethanoate] + Cc1ccccc1C
[2]
Conditions | mass density [kg/m3] | surface tension liquid-gas [mN/m]
298.15 K, x1 = 0.0998 | 876.04 | 28.94
298.15 K, x1 = 0.1995 | 876.96 | 28.14
298.15 K, x1 = 0.2996 | 877.83 | 27.47
298.15 K, x1 = 0.4002 | 878.67 | 26.85
298.15 K, x1 = 0.5001 | 879.45 | 26.27
298.15 K, x1 = 0.6004 | 880.18 | 25.71
298.15 K, x1 = 0.7002 | 880.85 | 25.18
298.15 K, x1 = 0.7999 | 881.46 | 24.69
298.15 K, x1 = 0.9 | 882.03 | 24.25
298.15 K, x1 = 1 | 882.54 | 23.91
303.15 K, x1 = 0.0999 | – | 28.41
303.15 K, x1 = 0.1 | 871.68 | –
303.15 K, x1 = 0.1997 | 872.48 | 27.6
303.15 K, x1 = 0.2992 | 873.22 | 26.92
303.15 K, x1 = 0.3998 | 873.93 | 26.3
303.15 K, x1 = 0.4993 | 874.57 | 25.74
303.15 K, x1 = 0.6002 | 875.17 | 25.2
303.15 K, x1 = 0.6994 | 875.7 | 24.7
303.15 K, x1 = 0.8002 | 876.19 | 24.24
303.15 K, x1 = 0.902 | 876.63 | 23.81
303.15 K, x1 = 1 | 876.99 | 23.46
308.15 K, x1 = 0.0999 | 867.33 | 27.8
308.15 K, x1 = 0.1999 | 867.99 | 27.05
308.15 K, x1 = 0.3001 | 868.59 | 26.35
308.15 K, x1 = 0.3989 | 869.15 | 25.73
308.15 K, x1 = 0.5002 | 869.66 | 25.14
308.15 K, x1 = 0.6008 | 870.11 | 24.6
308.15 K, x1 = 0.6998 | 870.5 | 24.1
308.15 K, x1 = 0.8007 | 870.84 | 23.63
308.15 K, x1 = 0.9 | 871.12 | 23.2
308.15 K, x1 = 1 | 871.35 | 22.79
